In patent publication US20160015786A1, “MOBILIZING AGENTS AND USES THEREFOR” (MATER MEDICAL RESEARCH INSTITUTE LIMITED, priority 2013, published 2016):

Assays:
[1] = tested on: colony-forming cells (CFCs); test: Mobilization of colony-forming cells (CFC/CFU) to blood and spleen, colony assays; format: in vivo, C57BL/6 mice
Protocol: Mobilization of colony-forming cells (CFCs) to the blood and spleen were measured (FIG. 1B).
This was divided into two experiments in which G-CSF was administered for 2 days in one experiment and 4 days in the other (FIG. 2). […] Mobilization of CFCs, phenotypic Lin^−CD41^−Sca1^+Kit^+ HSPCs and Lin^−CD41^− Sca1^+Kit^+CD48^−CD150^+ HSCs were measured in blood and spleens.
Additional HIF-α potentiating agents in the form of PHD inhibitors were tested for their ability to enhance mobilization induced by G-CSF.
(§1) At the end of treatment, blood was harvested by cardiac puncture, mice were sacrificed by cervical dislocation and spleens harvested. Femurs were removed, cleaned and the bone marrow was flushed with 1 mL PBS+10% newborn calf serum (NCS).
The number of phenotypic hematopoietic stem and progenitor cells remaining in the bone marrow following treatment was measured by flow cytometry using antibodies specific for lineage markers (CD3, CD5, CD45R/B220, F4/80, Gr1, CD41, Ter119), Sca-1, Kit, CD48 and CD150. Similarly, the number of phenotypic hematopoietic stem cells mobilized into the blood and spleen were measured. Colony assays were also performed on blood and spleen to determine the number of colony forming cells per mL of blood and per spleen. […] Levels of significance for differences were calculated using the Student's t-test.
All procedures were approved by the animal experimentation ethics committee of the University of Queensland. […] Plerixafor (AMD3100 octohydrochloride, Tocris Bioscience, Bristol, UK) was injected intraperitoneally as a single 16 mg/kg dose corresponding to 10 mg/kg of AMD3100 base. Tissues were harvested 1 h after Plerixafor administration. […] Control mice were injected with an equivalent volume of saline. At specified time-points, mice were anesthetized with isoflurane before cardiac puncture to harvest blood. Mice were then euthanized by cervical dislocation and BM and bones harvested.
Optimal concentrations of mouse IL-3, IL-6 and soluble kit ligand were added as conditioned media from stably transfected BHK cell lines. Colonies were counted after 7 days culture at 37° C. in a humidified incubator containing 5% CO2.

[2] = tested on: hematopoietic stem and progenitor cells; test: Phenotypic HSCs, HSPCs and myeloid progenitors in blood, spleen and bone marrow by flow cytometry; format: in vivo, C57BL/6 mice
Protocol: Additional HIF-α potentiating agents in the form of PHD inhibitors were tested for their ability to enhance mobilization induced by G-CSF. Compound A, Compound B or Compound C, were tested in male, 7 weeks-old C57BL/6 mice. Mice were injected twice daily sub-cutaneously with rhuG-CSF at a dose of 125 μg/kg per injection for four days. Mice were gavaged with 20 mg/kg Compound A, Compound B, Compound C or vehicle control once daily for three days beginning on day 1 of the experiment.
as §1
The number of phenotypic hematopoietic stem and progenitor cells remaining in the bone marrow following treatment was measured by flow cytometry using antibodies specific for lineage markers (CD3, CD5, CD45R/B220, F4/80, Gr1, CD41, Ter119), Sca-1, Kit, CD48 and CD150. Similarly, the number of phenotypic hematopoietic stem cells mobilized into the blood and spleen were measured. Colony assays were also performed on blood and spleen to determine the number of colony forming cells per mL of blood and per spleen. All results are presented as mean f standard deviation with n=6 per groups. Levels of significance for differences were calculated using the Student's t-test.
All procedures were approved by the animal experimentation ethics committee of the University of Queensland. All experiments were performed on nine to twelve-week old C57BL/6 male mice or genetically modified mice back-crossed at least 10 times into C57BL/6. Recombinant human G-CSF (Amgen, Thousand Oaks, Calif.) was injected twice daily subcutaneously at 125 μg/kg per injection for up to 4 consecutive days. Plerixafor (AMD3100 octohydrochloride, Tocris Bioscience, Bristol, UK) was injected intraperitoneally as a single 16 mg/kg dose corresponding to 10 mg/kg of AMD3100 base. Tissues were harvested 1 h after Plerixafor administration. […] Compounds H and J were administered at 60 mg/kg and Compound K was administered at 100 mg/kg. Control mice were injected with an equivalent volume of saline. At specified time-points, mice were anesthetized with isoflurane before cardiac puncture to harvest blood. Mice were then euthanized by cervical dislocation and BM and bones harvested.
Following flushing with PBS plus 2% NCS, enriched central BM cells were pelleted at 370×g for 5 minutes at 4° C. and resuspended in CD16/CD32 hybridoma 2.4G2 supernatant to block IgGFc receptors. HSCs were stained with the biotinylated lineage antibody cocktail (CD3, CD5, B220, CD11b, Gr-1, Ter119) and biotinylated CD41 together with streptavidin (SAV)-Pacific Blue, anti-Sca-1-PECY7, anti-KIT-APC, CD48-FITC and CD150-PE as previously described (17). Data were acquired on a CyAn (Dako Cytomation) flow cytometer and analyzed following compensation with single color controls using FlowJo software (Tree Star, Ashland, Oreg.).

[3] = Compound X added to 2 days G-CSF plus Plerixafor, p<0.005
[4] = Compound X added to 2 days G-CSF plus Plerixafor, P<0.01
[5] = G-CSF 2 days together with Compound X, p<0.005

**Q.** Which “mobilization of HSPC to the spleen” value ([1]; 1 hr following Plerixafor treatment with or without Compound X, FIG. 1D) does the source give for `O=C(O)CNC(=O)c1ncc2cc(Sc3ccccc3)ccc2c1O` [Compound X, [(4-Hydroxy-7-phenylsulfanyl-isoquinoline-3-carbonyl)-amino]-acetic acid] here?
**A.** no significant mobilization

**Q.** And the “day of Compound X administration at which CFC mobilization into blood and spleen peaks” value ([1]; Compound X 1-4 days, G-CSF for the last 2 days, FIG. 1C)?
**A.** 3 days

**Q.** What about the “further increase of CFC/mL mobilized into blood” value [1, 3] of the same compound?
**A.** 2.5 fold

**Q.** And the “further increase of CFC/spleen” value [1, 3]?
**A.** 4 fold

**Q.** And the “boost of CFC/mL blood” value ([1]; Compound X added to 4 days G-CSF plus Plerixafor, p<0.005)?
**A.** 2.5 fold

**Q.** What about the “CFC mobilization into the blood” value ([1]; Compound X alone for 3 days) of the same compound?
**A.** did not induce

**Q.** What about the “increase in CFCs mobilized per mL blood” value ([1]; Example 1: Compound X 3 days added to G-CSF, following 2 days of G-CSF, FIG. 1B) of the same compound?
**A.** 2.5 fold

**Q.** And the “increase of CFCs mobilized to the spleen” value ([1]; Example 1: Compound X 3 days added to G-CSF, following 3 days of G-CSF, FIG. 1B)?
**A.** 6 fold

**Q.** And the “increase in the number of CFC/mL blood” value ([1]; Example 3: 4 days G-CSF, addition of Compound X, P<0.001)?
**A.** 4 fold

**Q.** And the “number of CFC/spleen” value ([1]; Example 3: 4 days G-CSF, addition of Compound X, P<0.01)?
**A.** further significant increase

**Q.** What about the mobilizing effect ([1]; Example 3: Compound X alone (data not shown)) of the same compound?
**A.** no mobilizing effect

**Q.** And the “CFC mobilized to the blood versus G-CSF alone” value ([1]; Example 3: G-CSF 250 μg/kg/day 2 days + Compound X 20 mg/kg/day 3 days (G+X3), p<0.001, FIG. 2B)?
**A.** 4 fold

**Q.** And the “CFC mobilized to the spleen versus G-CSF alone” value ([1]; Example 3: G-CSF 2 days + Compound X 20 mg/kg/day 3 days (G+X3), p<0.001, FIG. 2B)?
**A.** 47 fold

**Q.** What about the “number of CFC mobilized per mL blood in response to Plerixafor” value ([1]; Plerixafor 1 h plus 2 to 3 day treatment with Compound X, FIG. 1D) of the same compound?
**A.** significantly increased

**Q.** What about the “boost of mobilization of HSPCs in the blood” value [2, 4] of the same compound?
**A.** 2.5 fold

**Q.** What about the “boost of mobilization of HSPCs in the spleen” value [2, 4] of the same compound?
**A.** 4 fold

**Q.** And the “boost of mobilization of phenotypic HSCs” value [2, 4]?
**A.** 3 fold

**Q.** What about the “number of phenotypic HSCs and HSPCs in the blood” value ([2]; Compound X added to 4 days G-CSF and Plerixafor, P<0.001) of the same compound?
**A.** dramatically increased

**Q.** And the “number of Lin−Sca1+Kit+ HSPCs in spleen versus G-CSF alone” value [2, 5]?
**A.** tripled

**Q.** What about the “number of Lin−Sca1+Kit+ HSPCs in the blood versus G-CSF alone” value [2, 5] of the same compound?
**A.** doubled

**Q.** And the “increase in number of phenotypic HSCs versus G-CSF alone” value ([2]; G-CSF 2 days together with Compound X, p<0.005, FIG. 2C-D)?
**A.** 3 fold
